# Patent US5278068A, “Biologically pure culture of Cytospora useful as angiotensin II antagonist” (Merck & Co., Inc., priority 1992, dated 1994)
# “And” between values parts separate entries of the source, which are not always exact repeats. Equal entries are not always repeated.
# What was measured:
# [1] = target: T1, angiotensin II receptor, site 2 (rat adrenal membranes) (Rattus norvegicus, UniProt P35351); experiment: Receptor Assay using Rat Adrenal Gland Preparation (125I-Angiotensin II binding); conditions: at site 2, 37° C., 90 minutes
# T1 construct: Adrenal membranes for the receptor assay were readied first by placing cleaned, whole adrenal glands in microcentrifuge tubes; from tissue; host or cells: rat adrenal gland membranes
# T1 sequence (P35351 1-363): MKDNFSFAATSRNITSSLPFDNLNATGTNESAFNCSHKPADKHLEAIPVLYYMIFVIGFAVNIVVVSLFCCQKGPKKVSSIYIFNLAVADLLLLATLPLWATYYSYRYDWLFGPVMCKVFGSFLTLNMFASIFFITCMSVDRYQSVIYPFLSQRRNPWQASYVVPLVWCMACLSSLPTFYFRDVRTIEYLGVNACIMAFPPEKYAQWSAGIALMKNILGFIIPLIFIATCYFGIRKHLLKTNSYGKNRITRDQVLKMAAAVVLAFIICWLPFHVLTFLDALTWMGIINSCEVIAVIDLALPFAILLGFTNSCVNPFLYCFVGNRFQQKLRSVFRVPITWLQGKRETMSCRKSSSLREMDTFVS
# Excerpt: Angiotensin II (AII) is a powerful arterial vasoconstrictor, and it exerts its action by interacting with specific receptors present on cell membranes. The compounds produced by Cytospora sp. are competitive antagonists of AII at receptor sites. The usefulness of compounds as AII antagonists may be determined from the results of certain receptor binding assays. The initial assay is that using rat adrenal glands and the results of this assay are described herein.
# Adrenal membranes for the receptor assay were readied first by placing cleaned, whole adrenal glands in microcentrifuge tubes (20 glands per tube), and freezing and storing under liquid nitrogen. As needed, a microcentrifuge tube of adrenal glands was homogenized in 20 ml 50 mM tris (hydroxymethyl)aminomethane hydrochloride (Tris-HCl) pH 7.7 and centrifuged at 20,000 rpm for 15 minutes at 4° C. […]
# For the assay, the adrenal membrane preparation in one vial was resuspended in 30 ml of 100 mM Tris-HCl pH 7.4 with 5 mM MgCl2, 0.2% bovine serum albumin and 0.2 mg/ml bacitracin. […] The vials are counted with a gamma counter for one minute and percent inhibition determined from counts/min (CPM) as follows: [formula] The IC50 is determined by plotting percent inhibition v. concentration of compound tested.
# male Sprague-Dawley rats = conditions: rat; known activity; cited from earlier work
# rats = conditions: rat; known activity; cited from earlier work
structure (smiles),measurement,setting,value
CCCCCC1=C(C=O)C2OC(C)(C)C(O)CC23OC3C1=O (stereo not drawn) [Compound A],IC50,[1],1620 to 3240 nM and 1000 to 2000 nM
CN1C(=O)CN=C(c2ccccc2)c2cc(Cl)ccc21 [Diazepam],activity in conditioned emotional response assay,male Sprague-Dawley rats,active in this assay
CNC(=O)Oc1ccc2c(c1)[C@]1(C)CCN(C)[C@@H]1N2C [physostigmine],activity in passive avoidance assay,rats,known to be active
